The results in this text go back to ChEMBL document CHEMBL1129139, “Synthesis and activity of staurosporine analogs with a lactone functionality” (Bioorg Med Chem Lett, 1996).

A word on the IC50: it is the concentration that gives 50% inhibition.

The species entered for assay [1] is Cavia porcellus. The experiment in a line: Inhibitory effect of compound was measured for arterial contraction in guinea pig. It counts as functional, organism-based.
The species named for assay [2] is Cavia porcellus. The experiment in a line: Inhibitory effect of compound was measured for platelet aggregation in guinea pig blood. It counts as functional, organism-based.

Regarding `CN[C@@H]1CC2O[C@@](C)([C@@H]1OC)n1c3ccccc3c3c(CO)c(CO)c4c5ccccc5n2c4c31`, the half-maximal inhibitory concentration (IC50) amounted to 30 µM in the assay listed under Cavia porcellus [1] and 6.8 µM in the assay filed under Cavia porcellus [2].
Consider `CO[C@@H]1[C@H](N(C)C)CC2O[C@]1(C)n1c3ccccc3c3c4c(c5c6ccccc6n2c5c31)C(=O)OC4`, for which the IC50 in the assay listed under Cavia porcellus [1] is above 10 µM; in the assay listed under Cavia porcellus [2], 5.4 µM.
The like results for `CN[C@@H]1CC2O[C@@](C)([C@@H]1OC)n1c3ccccc3c3c4c(c5c6ccccc6n2c5c31)C(=O)OC4` were, in that order, above 30 µM and 6.8 µM.
For `CN[C@@H]1CC2O[C@@](C)([C@@H]1OC)n1c3ccc(O)cc3c3c4c(c5c6cc(O)ccc6n2c5c31)C(=O)OC4`, the IC50 came to 3 µM in the assay filed under Cavia porcellus [1] and 0.4 µM in the assay filed under Cavia porcellus [2].
